Results published in PMC8818328 (European journal of medicinal chemistry, 2021).
Values belong to the compound of their own block, whether it stands above or below them.

Experiments:
[1] = test system: renal cancer cell lines A-498 and Caki-1; assay: MTT assay, renal cancer cell lines; type: cell-based; conditions: for GI% renal cancer cell lines A-498 and Caki-1: 10 μM, range over both cell lines; for IC50: read-out: IC50 against the tested renal cancer cell lines
[2] = test system: HCT116, HT-29, K562, KG-1, A-498 and Caki-1 cell lines; assay: MTT assay, all six tested cell lines; type: cell-based; conditions: 10 μM, range over six cell lines
[3] = test system: caspase-8; assay: Caspase-8 ELISA in A-498 cells; type: cell-based, human; conditions: 24 h, control 0.274
[4] = molecular target: HDAC1 (Homo sapiens, UniProt Q13547); assay: Fluorogenic enzymatic assay HDAC1; type: biochemical
Chain of HDAC1 (Q13547 whole entry): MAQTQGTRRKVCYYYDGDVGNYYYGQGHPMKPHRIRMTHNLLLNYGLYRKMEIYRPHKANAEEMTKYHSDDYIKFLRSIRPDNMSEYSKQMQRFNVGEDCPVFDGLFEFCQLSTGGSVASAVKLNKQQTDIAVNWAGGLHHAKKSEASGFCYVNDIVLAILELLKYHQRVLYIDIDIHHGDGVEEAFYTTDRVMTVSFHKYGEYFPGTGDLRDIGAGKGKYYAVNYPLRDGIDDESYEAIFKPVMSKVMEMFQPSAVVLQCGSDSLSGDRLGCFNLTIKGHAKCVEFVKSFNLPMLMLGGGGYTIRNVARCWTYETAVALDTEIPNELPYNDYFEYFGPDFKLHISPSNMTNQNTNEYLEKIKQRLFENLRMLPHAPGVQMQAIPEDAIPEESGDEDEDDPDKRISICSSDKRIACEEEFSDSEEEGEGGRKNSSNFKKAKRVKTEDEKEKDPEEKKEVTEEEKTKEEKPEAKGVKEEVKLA

[5] = test system: caspase-9; assay: Caspase-9 ELISA in A-498 cells; type: cell-based, human; conditions: 24 h, control 4.53
[6] = test system: HDAC2 and FAK in A-498 cells; assay: Western blot of HDAC2 expression and FAK phosphorylation, A-498 cells; type: cell-based; conditions: 24 h at IC50, Western blot
[7] = test system: A-498 cells; assay: Cell cycle analysis by flow cytometry, A-498; type: cell-based; conditions: 24 h
[8] = test system: STAT3 in A-498 cells; assay: Western blot of STAT3 activation; type: cell-based
[9] = test system: caspase-3; assay: Active caspase-3 ELISA in A-498 cells; type: cell-based, human; conditions: control 45.57
[10] = test system: HDAC2, p-FAK, p-Akt in A-498 cells; assay: Resistance development assay, Western blot of HDAC2, p-FAK, FAK, p-Akt, Akt
[11] = test system: Caki-1 cells; assay: Cell cycle analysis by flow cytometry, Caki-1; type: cell-based; conditions: 24 h
[12] = test system: HDAC2 and FAK in Caki-1 cells; assay: Western blot of HDAC2 expression and FAK phosphorylation, Caki-1 cells; type: cell-based; conditions: 24 h at IC50, Western blot
[13] = test system: K562; assay: MTT proliferation assay, K562; type: cell-based; conditions: Homo sapiens, K562, 24 h, read-out: Growth inhibition (%) K562
[14] = test system: HCT116; assay: MTT proliferation assay, HCT116; type: cell-based; conditions: Homo sapiens, HCT-116, 24 h, read-out: Growth inhibition (%) HCT116
[15] = test system: A-498 cells; assay: Resistance development assay; conditions: Homo sapiens, A498, read-out: IC50 on pretreated A-498 cells
[16] = A-498 cells, both pretreated (12 weeks) and not pretreated
[17] = A-498 cells pretreated 12 weeks

Structure (SMILES): O=C(O)CCCCCSc1nnc(-c2ccncc2)n1-c1ccccc1 [Compound 5d, 6-((4-phenyl-5-(pyridin-4-yl)-4H-1,2,4-triazol-3-yl)thio)hexanoic acid]
GI% renal cancer cell lines A-498 and Caki-1 [1]: 89.34–99.81% | IC50 [1]: 0.95 to 2.35 µM | GI% against all the tested cells [2]: 40.12–99.81%

Structure (SMILES): Cn1c(SCCCCCC(=O)NO)nnc1-c1ccncc1 [Compound 6a, N-hydroxy-6-((4-methyl-5-(pyridin-4-yl)-4H-1,2,4-triazol-3-yl)thio)hexanamide]
Caspase-8 Concentration [3]: 0.888 ng/mL | GI% renal cancer cell lines A-498 and Caki-1 [1]: 89.34–99.81% | IC50 [1]: 0.95 to 2.35 µM | IC50 [4]: 12.3 ± 1.64 µM | Caspase-9 Concentration [5]: 28.47 ng/mL | FAK phosphorylation [6]: decreased | expression level of HDAC2 [6]: decreased | percentage of cells in G1 phase ([7]; 1.5 μM): decreased | percentage of cells in S phase ([7]; 1.5 μM): minor changes | percentage of cells in G2/M phase ([7]; control 18%): 65% | STAT3 activation [8]: inhibit | Caspase-3 concentration [9]: 515.40 pg/mL | GI% against all the tested cells [2]: 40.12–99.81% | Akt phosphorylation [10, 16]: substantial ability to inhibit | FAK phosphorylation [10, 16]: steady ability to inhibit | HDAC2 expression [10, 16]: steady ability to inhibit | percentage of cells in G1 phase ([11]; 1.5 μM): decreased | percentage of cells in S phase ([11]; 1.5 μM): minor changes | percentage of cells in G2/M phase ([11]; control 5.5%): 35% | FAK phosphorylation [12]: decreased | expression level of HDAC2 [12]: decreased

Structure (SMILES): Cn1c(SCCCCCC(=O)Nc2ccccc2N)nnc1-c1ccncc1 [Compound 7a, N-(2-aminophenyl)-6-((4-methyl-5-(pyridin-4-yl)-4H-1,2,4-triazol-3-yl)thio)hexanamide]
IC50 [1]: 6.19 to 20.9 µM

Structure (SMILES): C=CCn1c(SCCCCCC(=O)Nc2ccccc2N)nnc1-c1ccncc1 [Compound 7c, 6-((4-allyl-5-(pyridin-4-yl)-4H-1,2,4-triazol-3-yl)thio)-N-(2-aminophenyl)hexanamide]
GI% renal cancer cell lines A-498 and Caki-1 [1]: 89.34–99.81% | IC50 [1]: 0.95 to 2.35 µM | FAK phosphorylation [6]: entirely blocked | GI% against all the tested cells [2]: 40.12–99.81% | FAK phosphorylation [12]: entirely blocked

Structure (SMILES): Nc1ccccc1NC(=O)CCCCCSc1nnc(-c2ccncc2)n1-c1ccccc1 [Compound 7d, N-(2-aminophenyl)-6-((4-phenyl-5-(pyridin-4-yl)-4H-1,2,4-triazol-3-yl)thio)hexanamide]
inhibition at 10 µM [13]: 15.1%

Structure (SMILES): Cn1c(SCc2ccc(C(=O)NO)cc2)nnc1-c1ccncc1 [Compound 10a, N-hydroxy-4-(((4-methyl-5-(pyridin-4-yl)-4H-1,2,4-triazol-3-yl)thio)methyl)benzamide]
inhibition at 10 µM [14]: 32.4% | IC50 [1]: 6.19 to 20.9 µM

Structure (SMILES): C=CCn1c(SCc2ccc(C(=O)NO)cc2)nnc1-c1ccncc1 [Compound 10c, 4-(((4-allyl-5-(pyridin-4-yl)-4H-1,2,4-triazol-3-yl)thio)methyl)-N-hydroxybenzamide]
IC50 [1]: 6.19 to 20.9 µM

Structure (SMILES): O=C(NO)c1ccc(CSc2nnc(-c3ccncc3)n2-c2ccccc2)cc1 [Compound 10d, N-hydroxy-4-(((4-phenyl-5-(pyridin-4-yl)-4H-1,2,4-triazol-3-yl)thio)methyl)benzamide]
IC50 [1]: 6.19 to 20.9 µM

Structure (SMILES): CCCC(CCC)C(=O)O [VPA, valproic acid, reference compound]
IC50 [15]: 3090 µM | Akt phosphorylation [10, 17]: drastic overexpression | HDAC2 expression [10, 17]: lower ability to inhibit

More lines, main results first:

IC50 [1]: 6.19 to 20.9 µM
Structure (SMILES): Cn1c(SCc2ccc(C(=O)Nc3ccccc3N)cc2)nnc1-c1ccncc1 [Compound 11a, N-(2-aminophenyl)-4-(((4-methyl-5-(pyridin-4-yl)-4H-1,2,4-triazol-3-yl)thio)methyl)benzamide]

IC50 [1]: 0.95 to 2.35 µM
Structure (SMILES): C=CCn1c(SCc2ccc(C(=O)Nc3ccccc3N)cc2)nnc1-c1ccncc1 [Compound 11c, 4-(((4-allyl-5-(pyridin-4-yl)-4H-1,2,4-triazol-3-yl)thio)methyl)-N-(2-aminophenyl)benzamide]
GI% renal cancer cell lines A-498 and Caki-1 [1]: 89.34–99.81% | GI% against all the tested cells [2]: 40.12–99.81%

IC50 [1]: 6.19 to 20.9 µM
Structure (SMILES): Nc1ccccc1NC(=O)c1ccc(CSc2nnc(-c3ccncc3)n2-c2ccccc2)cc1 [Compound 11d, N-(2-aminophenyl)-4-(((4-phenyl-5-(pyridin-4-yl)-4H-1,2,4-triazol-3-yl)thio)methyl)benzamide]
inhibition at 10 µM [14]: 45.4%
